From publication PMC5733478, “A Non-imaging High Throughput Approach to Chemical Library Screening at the Unmodified Adenosine-A3 Receptor in Living Cells” (Frontiers in Pharmacology, 2017)
Where a name gives a salt, the structure may show the parent alone. Read-outs that look alike come from different tables or passages of the source.

Target: T1, human A3AR (Homo sapiens, UniProt P0DMS8)
T1 construct: expressed in transfected cells
T1 sequence (P0DMS8 1-318): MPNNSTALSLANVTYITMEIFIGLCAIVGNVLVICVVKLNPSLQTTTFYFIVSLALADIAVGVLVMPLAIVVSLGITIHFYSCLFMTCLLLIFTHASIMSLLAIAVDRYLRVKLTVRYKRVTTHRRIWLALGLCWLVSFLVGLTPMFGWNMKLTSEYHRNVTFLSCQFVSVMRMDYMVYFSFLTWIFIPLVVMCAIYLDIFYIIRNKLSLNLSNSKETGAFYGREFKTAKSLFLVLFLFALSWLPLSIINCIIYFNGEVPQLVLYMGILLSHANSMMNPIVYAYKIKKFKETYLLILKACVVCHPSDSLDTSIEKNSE
Assay: LOPAC library primary screen: single concentration (10 μM) inhibition of 25 nM CA200645 binding, PHERAstar FS

[1] = % of control wells (1% DMSO and 25 nM CA200645), compounds at 10 µM, […], mean ± SD, three experiments in duplicate

Compound | % 25 nM CA200645 binding [%] | also measured
COc1ccc(Cc2nccc3cc(OC)c(OC)cc23)cc1OC [Papaverine hydrochloride] | 86.6 ± 22.0 | –
Cl.Cn1ccc2cc(NC(=O)Nc3cccnc3)ccc21 [SB 200646 hydrochloride] | 81.7 ± 19.9 | –
CCCC(C(=O)OCCN(CC)CC)(c1ccccc1)c1ccccc1.Cl [SKF-525A hydrochloride] | 95.3 ± 9.0 | –
CC(C)N(CCC(C(N)=O)(c1ccccc1)c1ccccn1)C(C)C (stereo not drawn) [Disopyramide] | 78.9 ± 27.0 | –
C=C1C[C@@]23CC[C@H]4[C@@](C)(CCC[C@@]4(C)C(=O)O)[C@@H]2CC[C@]1(O)C3 [Steviol] | 95.9 ± 19.9 | –
Cl.c1ccc2c(c1)CCC[C@H]2Nc1nc2ccccc2[nH]1 [NS8593 hydrochloride] | 91.2 ± 11.5 | –
O=c1c(O)c(-c2ccc(O)c(O)c2)oc2cc(O)cc(O)c12 [Quercetin dihydrate] | – | % 25 nM CA200645 binding [1]: 25.2 ± 6.9%
Clc1ccc(C(c2ccc(Cl)cc2)n2cc[n+](CC(OCc3ccc(Cl)cc3Cl)c3ccc(Cl)cc3Cl)c2)cc1 (stereo not drawn) [Calmidazolium chloride] | 54.4 ± 19.1 | –
CC(=O)C(C)=NO [2,3-Butanedione monoxime] | 109.9 ± 13.3 | –
CC1CCN=C(N)S1.Cl (racemic) [(±)-AMT hydrochloride] | 100.6 ± 12.5 | –
CCCCNc1c(C(=O)OCC)c(C)nc2c1cnn2CC [Tracazolate] | – | % 25 nM CA200645 binding (% of control wells (1% DMSO and 25 nM CA200645), compounds at 10 µM, whole live cells expressing the A3AR, mean ± SD, three experiments in duplicate): 98.9 ± 4.3%
LY-310,762 hydrochloride | 93.0 ± 7.5 | –
CC1=NS(=O)(=O)c2cc(Cl)ccc2N1 [Diazoxide] | 101.5 ± 12.2 | –
Cc1ccc(/C(=C\CN2CCCC2)c2ccccn2)cc1.Cl [Triprolidine hydrochloride] | 90.2 ± 0.5 | –
COc1ccccc1N1CCN(CCN(C(=O)C2CCCCC2)c2ccccn2)CC1.O=C(O)/C=C\C(=O)O [WAY-100635 maleate] | 90.8 ± 17.8 | –
O=c1c(-c2ccc(O)cc2)coc2cc(O)ccc12 [Daidzein] | 88.9 ± 6.0 | –
Cc1ccc(N(CC2=NCCN2)c2cccc(O)c2)cc1 [Phentolamine mesylate] | 98.9 ± 10.7 | –
CCCn1c(=O)c2[nH]c(-c3ccc(S(=O)(=O)O)cc3)nc2n(CCC)c1=O [1,3-dipropyl-8-p-sulfophenylxanthine, reference compound] | 42.3 ± 4.8 | % Total CA200645 binding: 42.3 ± 4.8%; hit in LOPAC primary screen (inhibited the binding of CA200645 by >40%): identified
CCCCCCCCCCCCCCCC(=O)OC(CC(=O)O)C[N+](C)(C)C.[Cl-] (racemic) [Palmitoyl-DL-Carnitine chloride] | 82.9 ± 21.8 | –
CCn1cc(C(=O)O)c(=O)c2cc(F)c(N3CCNC(C)C3)c(F)c21 (stereo not drawn) [Lomefloxacin hydrochloride] | 96.9 ± 10.1 | –
Nc1ccn([C@@H]2O[C@H](CO)[C@@H](O)C2(F)F)c(=O)n1 [Gemcitabine hydrochloride] | 106.0 ± 4.9 | –
C[C@](N)(CCP(=O)(O)O)C(=O)O.Cl [(S)-MAP4 hydrochloride] | 89.0 ± 15.4 | –
Cn1cc(C(=O)OCC2CCN(CCNS(C)(=O)=O)CC2)c2ccccc21 [GR 113808] | 92.8 ± 8.0 | –

Compound | % 25 nM CA200645 binding [%] | also measured
CCCCCN(C)CCC(O)(P(=O)([O-])O)P(=O)(O)O.[Na+] [Ibandronate sodium] | 95.5 ± 10.4 | –
CNCCC=C1c2ccccc2CCc2ccccc21 [Nortriptyline hydrochloride] | 106.1 ± 17.3 | –
CC(=O)[C@H]1CC[C@H]2[C@@H]3CC[C@H]4C[C@](C)(O)CC[C@]4(C)[C@H]3CC[C@]12C [Ganaxolone] | 83.6 ± 13.4 | –
O=c1[nH]c(=S)[nH]c(-c2ccccc2)c1Cc1c(O)ccc2ccccc12 [Cambinol] | 94.8 ± 8.3 | –
CN(C)CCOC(C)(c1ccccc1)c1ccccn1 (stereo not drawn) [Doxylamine succinate] | 107.4 ± 0.7 | –
Nn1nnc2ccccc21 [1-Aminobenzotriazole] | 83.5 ± 18.8 | –
CNc1ccc2oc(C[C@H]3O[C@@]4(CC[C@H]3C)O[C@H]([C@H](C)C(=O)c3ccc[nH]3)[C@H](C)C[C@H]4C)nc2c1C(=O)O [Calcimycin] | 38.9 ± 3.3 | –
CC[n+]1c(/C=C/C=C2/N(C)c3ccccc3C2(C)C)sc2ccccc21.[I-] [AC-93253 iodide] | 89.8 ± 11.3 | –
Nc1cc(N2CCCCC2)nc(N)[n+]1[O-] [Minoxidil] | 96.7 ± 6.2 | –
N[C@@H](Cc1ccc(F)cc1)C(=O)O [p-Fluoro-L-phenylalanine] | 98.5 ± 8.4 | –
CCCCNc1ccc(C(=O)OCCN(C)C)cc1 [Tetracaine hydrochloride] | 85.8 ± 26.7 | –
CC12CC3CC(C)(C1)CC(N)(C3)C2 [Memantine hydrochloride] | 109.9 ± 10.5 | –
Clc1ccc2nsnc2c1NC1=NCCN1 [Tizanidine hydrochloride] | 107.2 ± 6.1 | –
COc1ccc(C(=O)NCc2cccnc2)cc1C(=O)NCc1cccnc1 [Picotamide] | 109.0 ± 15.4 | –
CC[C@@H]1C(=O)OC[C@@H]1Cc1cncn1C [Pilocarpine nitrate] | 92.9 ± 2.4 | –
Ic1ccccc1CNC1C2CCN(CC2)C1C(c1ccccc1)c1ccccc1.O=C(O)C(=O)O [L-703,606 oxalate salt hydrate] | 93.3 ± 4.4 | –
C[C@H](N[C@@H](CCc1ccccc1)C(=O)O)C(=O)N1CCC[C@H]1C(=O)O.O.O [Enalaprilat dihydrate] | 95.6 ± 2.1 | –
O=C1Nc2ccccc2/C1=C1/Nc2ccccc2/C1=N\O [Indirubin-3'-oxime] | – | % 25 nM CA200645 binding [1]: 50.6 ± 24.7%
CC(C)C[C@H](NC(=O)[C@H](O)[C@H](N)Cc1ccccc1)C(=O)O [Epibestatin hydrochloride] | 102.9 ± 13.0 | –
CCCCNc1cc(C(=O)O)cc(S(N)(=O)=O)c1Oc1ccccc1 [Bumetanide] | – | % 25 nM CA200645 binding (compounds tested at 10 µM, % of control wells (1% DMSO and 25 nM CA200645), […], mean ± SD, three experiments in duplicate): 94.3 ± 2.5%
CCCn1c(=O)c(C)cn2nc(N)nc12 [ICI 63,137] | 93.4 ± 5.4 | –
Ro 20-1724 | 108.8 ± 2.1 | –
CC(C)c1ccc2c(c1)c(SC(C)(C)C)c(CC(C)(C)C(=O)O)n2Cc1ccc(Cl)cc1 [MK-886] | 98.7 ± 12.2 | –

Compound | % 25 nM CA200645 binding [%] | also measured
CC(C)(Oc1ccc(C2CC2(Cl)Cl)cc1)C(=O)O (stereo not drawn) [Ciprofibrate] | 98.7 ± 5.2 | –
CCCc1c(-c2ccc(O)cc2)nn(-c2ccc(O)cc2)c1-c1ccc(O)cc1 | 35.7 ± 9.6 | –
N#C/C(=C\c1ccc(O)c(O)c1)C(=O)c1ccc(O)c(O)c1 [Tyrphostin AG 538] | 90.2 ± 14.0 | –
Cc1cccc(C(=O)NCN2CCN(c3ccccc3C#N)CC2)c1.O=C(O)/C=C\C(=O)O [PD 168,077 maleate] | 92.4 ± 5.3 | –
CCCN1CCOC2c3cc(O)ccc3OCC21.Cl (racemic) [(±)-PD 128,907 hydrochloride] | 103.2 ± 2.1 | –
C#CCn1c(=O)c2c(ncn2C)n(C)c1=O [3,7-Dimethyl-1-propargylxanthine] | 94.8 ± 1.8 | –
COc1ccccc1N1CCN(CCCNc2cc(=O)n(C)c(=O)n2C)CC1 [Urapidil hydrochloride] | 97.1 ± 1.5 | –
CC(CN1c2ccccc2Sc2ccccc21)N(C)C (stereo not drawn) [Promethazine hydrochloride] | 96.7 ± 11.4 | –
CC#C[C@]1(O)CC[C@H]2[C@@H]3CCC4=CC(=O)CCC4=C3[C@@H](c3ccc(N(C)C)cc3)C[C@@]21C [Mifepristone] | 83.5 ± 5.2 | –
CNCCC(Oc1ccccc1OC)c1ccccc1 (stereo not drawn) [Nisoxetine hydrochloride] | 97.3 ± 6.5 | –
CN1CCN2c3ccccc3Cc3ccccc3C2C1 (stereo not drawn) [Mianserin hydrochloride] | 92.0 ± 7.7 | –
Cl.O=C(CCCCCN1CCN(c2ccccc2-c2ccccc2)CC1)NC1CCCc2ccccc21 (stereo not drawn) [LP 12 hydrochloride hydrate] | 93.7 ± 9.5 | –
N[C@H](C(=O)O)c1cc(O)cc(O)c1 [(S)-3,5-Dihydroxyphenylglycine] | 102.7 ± 20.4 | –
c1ccc2c(c1)OCC(C1=NCCN1)O2 (stereo not drawn) [Idazoxan hydrochloride] | – | % 25 nM CA200645 binding (compounds tested at 10 µM, % of control wells (1% DMSO and 25 nM CA200645), whole live cells expressing the A3AR, mean ± SD, three experiments in duplicate): 112.7 ± 7.0%
Cc1cc(Cl)ccc1OCCCC(=O)NO [Droxinostat] | 96.3 ± 1.9 | –
CN1CCc2cccc3c2[C@H]1Cc1ccc(O)c(O)c1-3 [Apomorphine hydrochloride hemihydrate] | 95.0 ± 6.4 | –
CC(N)Cc1c[nH]c2ccc(OCc3cccs3)cc12 (stereo not drawn) [BW 723C86] | 102.2 ± 11.4 | –
CC(=N)NCCCC[C@H](N)C(=O)O.Cl [L-N6-(1-Iminoethyl)lysine hydrochloride] | 96.4 ± 1.7 | –
CC(=O)c1ccc(S(=O)(=O)NC(=O)NC2CCCCC2)cc1 [Acetohexamide] | 101.4 ± 13.1 | –
N=C(N)NC(=O)c1nc(Cl)c(N2CCCCCC2)nc1N [5-(N,N-hexamethylene)amiloride] | 87.5 ± 4.4 | –
O=C1c2c(O)ccc(O)c2C(=O)c2c(NCCNCCO)ccc(NCCNCCO)c21 [Mitoxantrone] | 88.5 ± 12.7 | –
